Drawing on ChEMBL document CHEMBL1145498, “A systematic interaction map of validated kinase inhibitors with Ser/Thr kinases” (Proc Natl Acad Sci U S A, 2007), this text covers ΔTm for six compounds.

For experiment [1], the target named is Calcium/calmodulin-dependent protein kinase kinase 2 (Homo sapiens, UniProt Q96RR4).
Experiment [2] deals with Dual specificity mitogen-activated protein kinase kinase 2 (Homo sapiens, UniProt P36507).
Experiment [3] addresses Calcium/calmodulin-dependent protein kinase type II subunit gamma (Homo sapiens) (UniProt Q13555).
Experiment [4] has as its target Serine/threonine-protein kinase 25 (Homo sapiens) (UniProt O00506).
For experiment [5], the target named is T1, Serine/threonine-protein kinase PLK4 (Homo sapiens) (UniProt O00444).
T1 sequence (whole entry): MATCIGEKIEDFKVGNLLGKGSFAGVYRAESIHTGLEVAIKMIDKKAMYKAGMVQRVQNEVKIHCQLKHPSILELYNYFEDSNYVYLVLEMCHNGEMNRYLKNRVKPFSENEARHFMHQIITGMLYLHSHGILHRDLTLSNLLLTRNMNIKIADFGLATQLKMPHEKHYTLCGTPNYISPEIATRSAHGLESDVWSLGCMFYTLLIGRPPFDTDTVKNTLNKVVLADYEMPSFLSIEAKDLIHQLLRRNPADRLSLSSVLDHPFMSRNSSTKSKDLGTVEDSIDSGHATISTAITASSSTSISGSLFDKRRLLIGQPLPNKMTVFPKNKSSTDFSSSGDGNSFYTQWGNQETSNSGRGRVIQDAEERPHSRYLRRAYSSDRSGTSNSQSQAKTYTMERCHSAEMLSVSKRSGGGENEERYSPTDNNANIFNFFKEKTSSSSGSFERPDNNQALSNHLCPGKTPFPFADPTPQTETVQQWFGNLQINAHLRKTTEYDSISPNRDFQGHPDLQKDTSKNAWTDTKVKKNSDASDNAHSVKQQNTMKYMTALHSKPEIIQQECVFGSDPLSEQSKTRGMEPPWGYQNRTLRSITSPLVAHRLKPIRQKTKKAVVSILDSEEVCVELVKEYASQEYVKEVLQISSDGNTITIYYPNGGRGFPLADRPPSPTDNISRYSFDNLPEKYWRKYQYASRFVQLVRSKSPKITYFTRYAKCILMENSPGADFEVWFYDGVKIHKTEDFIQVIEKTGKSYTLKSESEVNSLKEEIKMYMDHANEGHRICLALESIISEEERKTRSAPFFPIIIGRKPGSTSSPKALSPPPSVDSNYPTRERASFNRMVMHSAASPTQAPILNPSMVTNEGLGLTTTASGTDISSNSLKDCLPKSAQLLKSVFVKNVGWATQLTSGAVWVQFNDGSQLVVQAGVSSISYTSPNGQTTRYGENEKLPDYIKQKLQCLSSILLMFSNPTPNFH

In experiment [6] the target is Glycogen synthase kinase-3 beta (Homo sapiens, UniProt P49841).
Glycogen synthase kinase-3 beta, sequence (P49841 whole entry, looked up): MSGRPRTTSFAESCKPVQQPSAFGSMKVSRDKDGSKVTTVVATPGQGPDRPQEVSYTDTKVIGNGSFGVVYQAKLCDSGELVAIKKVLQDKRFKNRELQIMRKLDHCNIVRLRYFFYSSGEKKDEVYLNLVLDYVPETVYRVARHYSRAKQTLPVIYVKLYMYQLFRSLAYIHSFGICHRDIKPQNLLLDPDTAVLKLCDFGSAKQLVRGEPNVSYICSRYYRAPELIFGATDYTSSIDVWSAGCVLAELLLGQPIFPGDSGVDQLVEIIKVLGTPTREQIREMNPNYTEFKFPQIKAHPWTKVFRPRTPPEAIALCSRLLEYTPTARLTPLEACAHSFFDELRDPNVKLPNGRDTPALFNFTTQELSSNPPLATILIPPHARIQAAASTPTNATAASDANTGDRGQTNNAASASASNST
Experiment [7] deals with Calcium/calmodulin-dependent protein kinase type 1G (Homo sapiens) (UniProt Q96NX5).
Calcium/calmodulin-dependent protein kinase type 1G (Homo sapiens), sequence (Q96NX5 whole entry): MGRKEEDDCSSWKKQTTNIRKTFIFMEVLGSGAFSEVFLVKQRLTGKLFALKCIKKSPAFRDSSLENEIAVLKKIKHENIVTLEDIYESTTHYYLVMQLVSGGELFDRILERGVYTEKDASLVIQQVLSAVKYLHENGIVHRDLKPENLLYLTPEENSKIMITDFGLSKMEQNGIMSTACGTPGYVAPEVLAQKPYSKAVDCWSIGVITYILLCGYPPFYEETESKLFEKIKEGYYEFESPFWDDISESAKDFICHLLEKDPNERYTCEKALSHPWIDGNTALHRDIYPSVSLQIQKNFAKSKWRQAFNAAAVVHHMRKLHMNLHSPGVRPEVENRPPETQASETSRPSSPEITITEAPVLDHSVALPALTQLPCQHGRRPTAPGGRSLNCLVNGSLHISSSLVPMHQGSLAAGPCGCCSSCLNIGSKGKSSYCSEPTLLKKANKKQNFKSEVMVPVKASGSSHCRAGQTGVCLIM
Experiment [8] has as its target Dual specificity protein kinase CLK3 (Homo sapiens) (UniProt P49761).
Experiment [9] concerns the target Casein kinase I isoform gamma-2 (Homo sapiens) (UniProt P78368).
Experiment [10] addresses Casein kinase I isoform gamma-3 (Homo sapiens) (UniProt Q9Y6M4).
For experiment [11], the target named is Tyrosine-protein kinase JAK1 (Homo sapiens) (UniProt P23458).
The target of experiment [12] is T2, Calcium/calmodulin-dependent protein kinase type IV (Homo sapiens) (UniProt Q16566).
T2 sequence (whole entry): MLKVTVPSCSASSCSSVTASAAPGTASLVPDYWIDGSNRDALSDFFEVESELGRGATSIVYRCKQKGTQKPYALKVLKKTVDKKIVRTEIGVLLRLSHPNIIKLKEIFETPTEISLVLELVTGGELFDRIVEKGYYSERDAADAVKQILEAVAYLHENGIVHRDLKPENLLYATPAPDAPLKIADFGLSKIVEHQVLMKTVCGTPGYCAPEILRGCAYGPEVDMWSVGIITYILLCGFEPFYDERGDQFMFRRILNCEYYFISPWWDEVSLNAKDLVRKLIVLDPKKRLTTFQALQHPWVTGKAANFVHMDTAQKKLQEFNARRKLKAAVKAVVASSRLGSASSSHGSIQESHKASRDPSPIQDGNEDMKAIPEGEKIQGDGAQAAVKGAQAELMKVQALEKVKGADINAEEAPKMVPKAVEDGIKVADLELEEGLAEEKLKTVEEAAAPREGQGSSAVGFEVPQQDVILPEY

Experiment [13] addresses 5'-AMP-activated protein kinase catalytic subunit alpha-2 (Homo sapiens) (UniProt P54646).
Experiment [14] concerns the target Casein kinase I isoform gamma-1 (Homo sapiens) (UniProt Q9HCP0).
Experiment [15] deals with Ribosomal protein S6 kinase alpha-3 (Homo sapiens) (UniProt P51812).
Ribosomal protein S6 kinase alpha-3 (Homo sapiens), sequence (P51812 whole entry): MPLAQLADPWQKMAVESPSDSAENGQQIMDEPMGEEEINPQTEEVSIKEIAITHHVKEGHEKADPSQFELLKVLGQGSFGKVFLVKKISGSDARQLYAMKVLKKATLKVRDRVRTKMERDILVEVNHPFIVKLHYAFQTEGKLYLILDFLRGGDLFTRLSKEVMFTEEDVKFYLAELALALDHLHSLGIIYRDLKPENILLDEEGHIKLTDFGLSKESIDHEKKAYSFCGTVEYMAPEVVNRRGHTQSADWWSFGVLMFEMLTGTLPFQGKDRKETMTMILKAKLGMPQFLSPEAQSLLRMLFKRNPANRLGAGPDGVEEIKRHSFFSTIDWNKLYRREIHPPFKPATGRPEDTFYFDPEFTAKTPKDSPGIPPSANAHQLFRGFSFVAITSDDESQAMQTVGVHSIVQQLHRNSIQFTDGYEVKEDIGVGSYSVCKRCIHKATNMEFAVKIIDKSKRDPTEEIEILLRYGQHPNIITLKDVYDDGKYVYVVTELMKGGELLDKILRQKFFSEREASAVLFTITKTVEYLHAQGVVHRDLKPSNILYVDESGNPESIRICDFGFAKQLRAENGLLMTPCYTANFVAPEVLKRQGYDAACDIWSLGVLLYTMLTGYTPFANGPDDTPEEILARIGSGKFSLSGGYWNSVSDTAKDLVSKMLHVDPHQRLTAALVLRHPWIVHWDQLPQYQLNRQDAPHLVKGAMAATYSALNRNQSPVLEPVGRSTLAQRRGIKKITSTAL
Experiment [16] concerns the target T3, Serine/threonine-protein kinase VRK1 (Homo sapiens) (UniProt Q99986).
T3 sequence (whole entry): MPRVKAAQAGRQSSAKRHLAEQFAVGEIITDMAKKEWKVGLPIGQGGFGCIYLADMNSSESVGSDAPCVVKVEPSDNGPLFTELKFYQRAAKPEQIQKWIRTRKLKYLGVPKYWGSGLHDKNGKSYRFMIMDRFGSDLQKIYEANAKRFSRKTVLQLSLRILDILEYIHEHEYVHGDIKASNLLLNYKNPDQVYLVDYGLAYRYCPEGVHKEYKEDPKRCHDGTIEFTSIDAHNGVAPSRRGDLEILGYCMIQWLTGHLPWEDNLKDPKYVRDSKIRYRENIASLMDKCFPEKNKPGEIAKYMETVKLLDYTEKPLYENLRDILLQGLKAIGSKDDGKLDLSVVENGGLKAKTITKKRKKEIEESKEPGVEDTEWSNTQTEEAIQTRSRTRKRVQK

Experiment [17] concerns the target TRAF2 and NCK-interacting protein kinase (Homo sapiens) (UniProt Q9UKE5).
Experiment [18] deals with Calcium/calmodulin-dependent protein kinase type II subunit delta (Homo sapiens) (UniProt Q13557).
Calcium/calmodulin-dependent protein kinase type II subunit delta (Homo sapiens), sequence (Q13557 whole entry): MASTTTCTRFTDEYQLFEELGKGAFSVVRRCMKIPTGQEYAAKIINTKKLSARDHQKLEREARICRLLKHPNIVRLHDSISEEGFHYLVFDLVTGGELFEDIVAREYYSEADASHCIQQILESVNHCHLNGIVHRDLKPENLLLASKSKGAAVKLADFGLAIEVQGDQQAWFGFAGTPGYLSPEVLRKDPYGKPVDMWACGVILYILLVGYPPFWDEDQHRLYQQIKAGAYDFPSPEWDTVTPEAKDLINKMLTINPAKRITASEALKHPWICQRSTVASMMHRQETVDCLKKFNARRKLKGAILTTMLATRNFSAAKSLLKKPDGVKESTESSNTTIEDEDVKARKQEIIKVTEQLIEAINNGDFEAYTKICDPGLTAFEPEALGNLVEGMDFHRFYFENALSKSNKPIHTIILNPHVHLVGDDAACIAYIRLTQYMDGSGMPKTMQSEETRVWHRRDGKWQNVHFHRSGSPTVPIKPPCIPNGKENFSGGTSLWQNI
Experiment [19] has as its target Serine/threonine-protein kinase pim-2 (Homo sapiens, UniProt Q9P1W9).
The target of experiment [20] is Mitogen-activated protein kinase 6 (Homo sapiens) (UniProt Q16659).
Mitogen-activated protein kinase 6 (Homo sapiens), sequence (Q16659 whole entry): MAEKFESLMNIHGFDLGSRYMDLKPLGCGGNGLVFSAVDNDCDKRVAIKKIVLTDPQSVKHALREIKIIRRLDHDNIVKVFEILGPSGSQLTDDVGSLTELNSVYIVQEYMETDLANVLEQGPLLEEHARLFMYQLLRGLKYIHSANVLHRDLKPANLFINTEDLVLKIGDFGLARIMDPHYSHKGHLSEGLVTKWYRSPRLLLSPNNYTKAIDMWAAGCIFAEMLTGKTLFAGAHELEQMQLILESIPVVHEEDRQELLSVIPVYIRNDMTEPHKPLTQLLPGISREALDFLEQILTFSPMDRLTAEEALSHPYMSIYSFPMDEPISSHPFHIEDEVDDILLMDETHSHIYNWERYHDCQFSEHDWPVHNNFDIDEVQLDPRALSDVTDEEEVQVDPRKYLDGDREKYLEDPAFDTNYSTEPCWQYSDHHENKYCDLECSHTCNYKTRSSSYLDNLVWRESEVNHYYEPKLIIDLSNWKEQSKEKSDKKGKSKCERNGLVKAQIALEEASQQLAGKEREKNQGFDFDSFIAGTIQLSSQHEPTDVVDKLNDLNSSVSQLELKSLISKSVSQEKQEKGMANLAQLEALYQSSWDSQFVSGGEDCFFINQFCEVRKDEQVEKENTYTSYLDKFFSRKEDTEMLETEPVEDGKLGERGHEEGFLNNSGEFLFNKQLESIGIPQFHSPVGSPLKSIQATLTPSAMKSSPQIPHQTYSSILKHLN

Structures are written as SMILES.

Serine/threonine-protein kinase 25 (Homo sapiens), sequence (O00506 whole entry, looked up): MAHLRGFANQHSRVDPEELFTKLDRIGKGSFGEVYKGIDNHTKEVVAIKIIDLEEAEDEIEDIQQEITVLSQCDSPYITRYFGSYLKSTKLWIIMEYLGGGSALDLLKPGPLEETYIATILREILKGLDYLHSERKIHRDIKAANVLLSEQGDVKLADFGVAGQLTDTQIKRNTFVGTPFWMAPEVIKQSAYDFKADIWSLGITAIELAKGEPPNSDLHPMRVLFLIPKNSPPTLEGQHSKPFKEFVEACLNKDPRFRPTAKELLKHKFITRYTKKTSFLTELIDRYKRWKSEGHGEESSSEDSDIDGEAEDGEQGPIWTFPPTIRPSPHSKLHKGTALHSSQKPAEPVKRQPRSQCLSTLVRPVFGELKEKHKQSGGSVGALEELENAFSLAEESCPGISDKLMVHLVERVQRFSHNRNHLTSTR
Casein kinase I isoform gamma-3 (Homo sapiens), sequence (Q9Y6M4 whole entry, looked up, canonical isoform): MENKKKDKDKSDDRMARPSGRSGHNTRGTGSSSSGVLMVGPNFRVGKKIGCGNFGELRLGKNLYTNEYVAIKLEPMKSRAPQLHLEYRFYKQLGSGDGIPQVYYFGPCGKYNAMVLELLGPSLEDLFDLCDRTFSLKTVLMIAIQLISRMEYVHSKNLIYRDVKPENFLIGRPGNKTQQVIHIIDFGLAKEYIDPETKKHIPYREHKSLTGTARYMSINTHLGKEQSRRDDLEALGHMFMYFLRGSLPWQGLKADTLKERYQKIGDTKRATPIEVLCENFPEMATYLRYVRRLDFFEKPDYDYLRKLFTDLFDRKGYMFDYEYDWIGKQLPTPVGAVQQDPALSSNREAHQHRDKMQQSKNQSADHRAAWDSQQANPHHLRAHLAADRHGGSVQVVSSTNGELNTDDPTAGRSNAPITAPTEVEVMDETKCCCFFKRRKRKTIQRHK
Dual specificity protein kinase CLK3 (Homo sapiens), sequence (P49761 whole entry, looked up, canonical isoform): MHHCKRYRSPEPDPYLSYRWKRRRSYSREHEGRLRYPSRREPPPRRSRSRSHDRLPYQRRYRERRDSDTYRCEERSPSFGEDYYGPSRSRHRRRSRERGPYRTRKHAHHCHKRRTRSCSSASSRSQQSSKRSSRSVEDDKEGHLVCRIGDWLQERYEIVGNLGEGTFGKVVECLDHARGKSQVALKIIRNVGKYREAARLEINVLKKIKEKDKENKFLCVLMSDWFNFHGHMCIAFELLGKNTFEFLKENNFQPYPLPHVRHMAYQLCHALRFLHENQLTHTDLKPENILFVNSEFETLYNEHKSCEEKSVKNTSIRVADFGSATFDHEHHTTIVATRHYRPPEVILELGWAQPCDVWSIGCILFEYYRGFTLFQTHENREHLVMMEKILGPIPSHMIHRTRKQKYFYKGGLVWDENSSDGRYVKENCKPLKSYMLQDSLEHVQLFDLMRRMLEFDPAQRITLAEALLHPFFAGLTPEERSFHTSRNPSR
Casein kinase I isoform gamma-2 (Homo sapiens), sequence (P78368 whole entry, looked up, canonical isoform): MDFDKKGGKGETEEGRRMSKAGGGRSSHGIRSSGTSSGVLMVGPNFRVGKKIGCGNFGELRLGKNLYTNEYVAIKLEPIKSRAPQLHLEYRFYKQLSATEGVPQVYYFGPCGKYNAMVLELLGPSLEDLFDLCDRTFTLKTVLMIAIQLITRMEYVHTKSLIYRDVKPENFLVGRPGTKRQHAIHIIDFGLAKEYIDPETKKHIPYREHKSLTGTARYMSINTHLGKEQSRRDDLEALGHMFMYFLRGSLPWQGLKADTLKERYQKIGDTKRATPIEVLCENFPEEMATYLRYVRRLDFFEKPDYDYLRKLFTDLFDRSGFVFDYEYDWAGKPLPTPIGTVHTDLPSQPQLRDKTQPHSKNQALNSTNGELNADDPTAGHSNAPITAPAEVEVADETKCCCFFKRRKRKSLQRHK
Serine/threonine-protein kinase pim-2, sequence (Q9P1W9 whole entry, looked up): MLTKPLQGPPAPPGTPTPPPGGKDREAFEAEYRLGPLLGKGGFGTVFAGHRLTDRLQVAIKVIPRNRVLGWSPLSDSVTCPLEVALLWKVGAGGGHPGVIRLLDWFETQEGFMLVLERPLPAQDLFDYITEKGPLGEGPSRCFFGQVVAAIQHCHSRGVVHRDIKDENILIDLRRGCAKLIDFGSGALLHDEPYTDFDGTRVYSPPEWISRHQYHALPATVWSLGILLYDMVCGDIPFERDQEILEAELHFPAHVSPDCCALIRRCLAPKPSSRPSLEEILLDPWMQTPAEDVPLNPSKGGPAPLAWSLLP

`O=Nc1c(-c2c(O)[nH]c3ccccc23)[nH]c2ccccc12`: the ΔTm (in general, the shift of the melting midpoint relative to a reference) worked out at 4.3 °C in experiment [1]; 4.4 °C in experiment [2]; 2.3 °C in [3]; 3.8 °C in experiment [4]; 8.9 °C in [5]; 11.5 °C in [6]. Besides, the ΔTm in experiment [7] worked out at 1.1 °C; in [8] it was 2.7 °C; in experiment [9], 1.3 °C; in experiment [10], 2.7 °C; in experiment [11] it was 9.4 °C; in [12] it was 4.5 °C. In addition, the ΔTm in [13] is 4.5 °C; in [14], -0.3 °C; in experiment [15], 5.5 °C; in experiment [16], 0.1 °C; in experiment [17], 5.9 °C; in experiment [18], 2.8 °C. Moreover, the figures for the ΔTm in experiment [19] and in experiment [20] were 0 °C and 0.1 °C, respectively.

With `O=C1Nc2ccc(I)cc2/C1=C\c1cc(Br)c(O)c(Br)c1`, the ΔTm is 3.5 °C in experiment [1]; 0.2 °C in [2]; -0.3 °C in [3]; 0.6 °C in experiment [4]; 1.3 °C in experiment [5]; 3.6 °C in [6]. For the same compound, the ΔTm was -1.8 °C in [7]; 0.5 °C in experiment [8]; 1.1 °C in experiment [9]; 0 °C in experiment [10]; 4.5 °C in experiment [11]; 0.2 °C in [12]. Moreover, the ΔTm came to 1 °C in experiment [13]; 0.2 °C in experiment [14]; 2.7 °C in experiment [15]; 1.7 °C in experiment [16]; 3.9 °C in [17]; 0.9 °C in experiment [18]. Also, the ΔTm was found to be 6.8 °C in [19] and 0.4 °C in experiment [20].

With `Nc1ncnc2c1c(I)cn2[C@@H]1O[C@H](CO)[C@@H](O)[C@H]1O`, the ΔTm in [1] worked out at 2 °C; in experiment [2], 1.9 °C; in [3] it was 0.6 °C; in experiment [4], 4.2 °C; in [5] it was 2.9 °C; in experiment [6], 2 °C. The ΔTm in experiment [7] worked out at 0.2 °C; in [8], 7.3 °C; in experiment [9] it was 3.7 °C; in experiment [10], 2.7 °C; in experiment [11] it was 0.2 °C; in experiment [12], 2.5 °C. Further, the ΔTm in experiment [13] is 1 °C; in experiment [14], 2.5 °C; in experiment [15], 1.7 °C; in experiment [16] it was 0.1 °C; in experiment [17], 1.6 °C; in experiment [18] it was -0.4 °C. Further, the ΔTm in experiment [19] was 1 °C; in experiment [20], -0.1 °C.

As to `CC(C)n1cnc2c(NCc3ccccc3O)nc(NCCCO)nc21`, the ΔTm is 0.2 °C in experiment [1]; -0.2 °C in experiment [2]; 0.1 °C in experiment [3]; 0.3 °C in experiment [4]; 0.1 °C in [5]; 0.3 °C in experiment [6]. In addition, the ΔTm is 0.1 °C in experiment [7]; 0.1 °C in [8]; 0.7 °C in experiment [9]; 0.5 °C in experiment [10]; 0.8 °C in experiment [11]; 0.1 °C in experiment [12]. For the same compound, the ΔTm was 0.2 °C in experiment [13]; 0.5 °C in [14]; 0.9 °C in [15]; 0 °C in experiment [16]; 0 °C in experiment [17]; -0.1 °C in experiment [18]. The ΔTm in [19] was 0.1 °C; in [20] it was 0 °C.

`O=C1c2ccccc2-c2n[nH]c3cccc1c23`: the shift in melting temperature (ΔTm) in experiment [1] is 2.4 °C; in experiment [2] it was 1.3 °C; in experiment [3], 0.8 °C; in [4], 4.8 °C; in experiment [5], 6.3 °C; in experiment [6], 1.6 °C. Also, the ΔTm in experiment [7] turned out to be 2 °C; in [8], 2 °C; in experiment [9], 2.5 °C; in experiment [10], 2 °C; in experiment [11], 5.5 °C; in experiment [12], 1.5 °C. Besides, the ΔTm in experiment [13] is 2.1 °C; in experiment [14], 1.7 °C; in [15] it was 3.5 °C; in experiment [16] it was 0 °C; in [17], 3 °C; in [18] it was -0.5 °C. Besides, the values for the ΔTm in experiment [19] and in experiment [20] were 3.6 °C and 0.5 °C, respectively.

In the case of `O=C(O)/C=C/c1cc(CO)ccc1CO`, the ΔTm was 0.1 °C in [1]; -0.1 °C in experiment [2]; 0.1 °C in [3]; 0.5 °C in experiment [4]; 1 °C in experiment [5]; 0.1 °C in [6]. For the same compound, the ΔTm was determined as 0 °C in experiment [7]; 0 °C in [8]; 0.4 °C in experiment [9]; 0.4 °C in experiment [10]; 0.8 °C in experiment [11]; 0.5 °C in [12]. In addition, the ΔTm was found to be 0.7 °C in experiment [13]; 0.7 °C in [14]; 0.3 °C in [15]; 0.4 °C in experiment [16]; 0.8 °C in experiment [17]; 0 °C in experiment [18]. The ΔTm was determined as 1.6 °C in [19] and 0.3 °C in [20].
